Source: patent US20260258084A1, “New Peptides as Selective IL-23 Receptor Antagonists” (Sanofi, priority 2022, published 2026)
pIC50: −log10 of the molar value. Converted amounts (≈) assume the structure as drawn. Where two headings read alike, the source gives them in different places. Starred links: 1 amine or outer side, 2 acyl side, 3 side chain; linkers in the order of their positions; H or OH if unused. Positions of bridges follow the written chain, without caps; N, C: chain ends. Non-standard residues stand in square brackets, D forms with d. Residues, ends and D or L forms follow the SMILES beside them. Groups on a side chain read outwards from the residue. *: point of attachment. X5 = CN(C(=O)CCC(=O)[*:3])[C@@H](CS[*:2])C(=O)[*:1]; Trp(7-Me) = Cc1cccc2c(C[C@H](N)C(=O)O)c[nH]c12; C18 diacid = O=C(O)CCCCCCCCCCCCCCCCC(=O)*; αMeLys(Me2) = CN(C)CCCC[C@](C)(N)C(=O)O; γGlu = O=C(O)[C@H](CCC(=O)[*:2])N[*:1]; 2Nal = N[C@@H](Cc1ccc2ccccc2c1)C(=O)O; AEF = NCCOc1ccc(C[C@H](N)C(=O)O)cc1; 3Pal = N[C@@H](Cc1cccnc1)C(=O)O; Lys(Me) = CNCCCC[C@H](N)C(=O)O; αMeL = CC(C)C[C@](C)(N)C(=O)O; Suc = O=C(CCC(=O)[*:2])[*:1]; AEEA = NCCOCCOCC(=O)O; Me2NCH2CH2 = CN(C)CC*; Aib = CC(C)(N)C(=O)O; Ahx = NCCCCCC(=O)O; Ava = NCCCCC(=O)O; Sar = CNCC(=O)O

Experiments:
[1] = target: T1, human interleukin-23 receptor (recombinant human IL-23R-Fc chimera) (Homo sapiens, UniProt Q5VWK5); experiment: Human ELISA IL23/IL23R (assay for specific human IL23R antagonists); type: binding; settings: Table 10; read-out: Human ELISA IL23/IL23R IC50
T1 construct: Fc (IgG Fc fusion)
Outline: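 Competition format: peptide dilutions compete for IL23R-Fc chimera (0.1 μg/ml final, 60 min, room temperature) binding to immobilized human IL23 coated at […] overnight at 4 °C. Read-out is fluorogenic HRP signal from goat anti-hu-IgG1 detecting captured receptor.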

[2] = test system: IL-23 induced STAT3 signaling in HEK-Blue™ IL-23 cells; experiment: IL-23 induced STAT3 signaling in HEK-Blue IL-23 cells (SEAP reporter); type: cell-based; settings: human IL23 0.25 ng/ml, read-out: pSTAT3
Excerpt: HEK-Blue™ IL-23 cells (Invivogen) are designed for the detection of bioactive human (hIL-23) and murine IL-23 (mIL-23) by monitoring the activation of the STAT3 pathway. Binding of IL-23 to its receptor on the surface of HEK-Blue™ IL-23 cells triggers a signalling cascade leading to the activation of STAT3 and the subsequent production of secreted embryonic alkaline phosphatase (SEAP). This can be readily assessed using QUANTI-Blue™ Solution, a SEAP detection reagent.
HEK-Blue™ IL-23 cells were cultured as described by Invivogen.
On the first day of assay 10 μL of the HEK-Blue IL23 cell suspension (final concentration: 10,000 cells/well) and 10 μl of serially diluted peptides solutions were dispensed into a 384-well assay plate. After pre-incubation of the reaction mixtures at 37° C./5% CO2/95% humidity for 60 minutes, 10 μl of the human IL23 cytokine (final concentration: 0.25 ng/ml) was added to each well for the STAT3 signalling activation. The plate was incubated overnight at 37° C./5% CO2/95% humidity.
On the second day 20 μl per well of Quanti-Blue detection solution (prepared according to the manufacture instruction) was dispensed into a new 384-well plate and followed by the transfer of 5 μl supernatant of the overnight incubated cell/sample mixtures. After incubation of 45 min at room temperature signals were measured with PHERAstar (BMG) at OD 620-655 nm. Dose response data were fitted with XLfit.

[3] = test system: T2, Pepsin; experiment: Protease stability in simulated gastric fluid (Pepsin-SGF, FaSSGF); type: in vitro ADME; settings: simulated gastric fluid with pepsin (Pepsin-SGF), 60 min, 1 μM peptide, 37° C., read-out: FaSSGF 60 (min), remaining percent of peptide
T2 construct: purchased Merck Millipore
Method: (§1) Studies were carried out in simulated intestinal fluid (SIF) and simulated gastric fluid (SGF) to evaluate gastric stability of the peptide compounds disclosed herein.
For clarification the term “Pepsin-SGF” refers to a solution of simulated gastric fluid containing pepsin whereas “SGF media” refers to a solution of simulated gastric fluid without pepsin. Pepsin-SGF was prepared by dissolving 320 mg Pepsin (Merck Millipore) in 100 mL SGF media concentrate (ProSense).
(§2) Peptides were first dissolved at 1 mM stock concentration in 0.01 HCl (+/−10% of DMSO) and were than diluted further with water to a stock concentration of 20 μM. Final peptide concentration in the incubation was 1 μM.
(§3) To 76 μL of the Pepsin-SGF buffer, 4 μL of the 20 μM peptide stock solution was added and incubated at 37° C. At each timepoint (0, 60, 120 and 240 minutes) the reaction was quenched with addition of 80 μL Ethanol (0.1% HCOOH). The samples were centrifuged for 20 minutes and an aliquot of the supernatant 100 μL were transferred to a LoBind-MTP plate and analyzed by LCMS/MS. The peak area response was calculated at each time point for each test compound. As internal reference, the peak area response of the same test compound at TO was calculated. The percent remaining at each timepoint was calculated based on the peak area response ratio of the test compound at TO. Time 0 was set to 100%, and all later timepoints were calculated relative to time 0.

[4] = test system: Pancreatin; experiment: Protease stability in simulated intestinal fluid (Pancreatin-SIF, FaSSIF); type: in vitro ADME; settings: 1 μM peptide, 37° C.; for remaining at 1 h, 1 µM: 60 min, read-out: FaSSIF 60 (min), remaining percent of peptide; for remaining at 2 h, 1 µM: 120 min, read-out: FaSSIF 120 (min), remaining percent of peptide; for remaining at 4 h, 1 µM: 240 min, read-out: FaSSIF 240 (min), remaining percent of peptide
Method: as §1
Similarly, the term “Pancreatin-SIF” refers to a solution of simulated intestinal fluid containing pancreatin whereas “SIF-media” refers to a solution of simulated intestinal fluid without pancreatin.
Pancreatin-SIF was prepared by dissolving 1 mg Pancreatin (MP Biomedicals) in 10 mL SIF media concentrate (ProSense).
as §2
as §3, with “µM” for “μM”

[5] = Solubility testing of peptides at different pH; type: physicochemical; settings: target concentration 1 mg/ml, 2 hours agitation
Method: Prior to the solubility measurement of a synthesized peptide batch, its purity was determined through UPLC/MS (methods B-G).
For solubility testing the target concentration was 1 mg pure compound/ml. Therefore, solutions from solid samples were prepared in a buffer system at a concentration of 1 mg/mL compound. The solid samples were obtained by drying down aliquots of a dimethyl sulfoxide stock solution using a Thermo Speedvac vacuum centrifuge. The dry down time was 3 hours. • Solubility buffer system A) 50 mM HCl pH 1.2 • Solubility buffer system B) 50 mM phosphate buffer pH 6.5 • Solubility buffer system C) 50 mM phosphate buffer pH 7.4 • Solubility buffer system D) 50 mM phosphate buffer pH 9.0
UPLC-UV (Method A) was performed after 2 hours of gentle agitation from the filtered (0.45 μm filter plates) solutions, which was obtained by 10 mins of centrifugation forced filtration at 1500 RCF (relative centrifugal acceleration).
The solubility was determined by the comparison of the UV peak area of 2 μL-injections of a buffered sample diluted 1:5 with a standard curve of a dimethyl sulfoxide reference sample of the diluted in dimethyl sulfoxide with known concentration. The different extinction coefficients were taken into account for the calculation.

[6] = Chemical stability assessment of peptides (relative purity loss); type: physicochemical; settings: 24 hours at 37° C.
Method: Purity of a peptide batch was determined through UPLC/MS (Methods B-G) prior to chemical stability measurement. The target concentration was 1 mg/ml pure compound. Solutions from solid samples were prepared in the following buffer systems with a concentration of 1 mg/ml compound based on the previously determined % purity: • Solubility buffer system A) 50 mM HCl pH 1.2+Acetonitrile (1:1) • Solubility buffer system B) 50 mM phosphate buffer pH 6.5+Acetonitrile (1:1) • Solubility buffer system C) 50 mM phosphate buffer pH 7.4+Acetonitrile (1:1)
Prepared solutions were stored for 24 hours at 2° C. and 37° C. After this time course, the samples were centrifuged for 15 min at 2500 RCF to create a 1:5 dilution of the supernatant. Then 2 μl of the dilution were analysed with UHPLC-UV.
The chemical stability was rated through the relative loss of purity calculated by the equation:
[(purity after 0 hours at 37° C.)−(purity after 24 hours at 37° C.)]/(purity after 0 hours at 37° C.)]*100%
The purity is calculated as [(peak area peptide)/(total peak area)]*100%.

| SMILES | pIC50 [1] | pIC50 [2] | remaining at 1 h, 1 µM [3] [%] | remaining at 1 h, 1 µM [4] [%] | remaining at 2 h, 1 µM [4] [%] | remaining at 4 h, 1 µM [4] [%] | solubility at 2 h ([5]; 50 mM HCl buffer, 50 mM HCl pH 1.2, read-out: Solubility Buffer pH 1.2) [µg/mL] | solubility at 2 h ([5]; 50 mM phosphate buffer pH 6.5, read-out: Solubility Buffer pH 6.5) [µg/mL] | solubility at 2 h ([5]; 50 mM phosphate buffer pH 7.4, read-out: Solubility Buffer pH 7.4) [µg/mL] | solubility at 2 h ([5]; 50 mM phosphate buffer pH 9.0, read-out: Solubility Buffer pH 9.0) [µg/mL] | Chemical stability (relative purity loss) Buffer pH 1.2 ([6]; 50 mM HCl pH 1.2 + acetonitrile (1:1)) [%] | Chemical stability (relative purity loss) Buffer pH 6.5 ([6]; 50 mM phosphate buffer pH 6.5 + acetonitrile (1:1)) [%] | Chemical stability (relative purity loss) Buffer pH 7.4 ([6]; 50 mM phosphate buffer pH 7.4 + acetonitrile (1:1)) [%] |
| --- | --- | --- | --- | --- | --- | --- | --- | --- | --- | --- | --- | --- | --- |
| C[C@H](NC(=O)[C@@H]1CC(=O)NCCCCCC(=O)N[C@H]2CSSC[C@H](NC(=O)[C@H](CCC(N)=O)NC(=O)[C@H](Cc3c[nH]c4ccccc34)NC(=O)CCCCNC2=O)C(=O)N[C@@H](Cc2ccc(OCCN)cc2)C(=O)N[C@@H](Cc2ccc3ccccc3c2)C(=O)NC(C)(C)C(=O)N1)C(=O)NCC(N)=O [compound 53] ([Ahx]C[Ava]WQC[AEF][2Nal][Aib]DAG-NH2; disulfide 2-6; lactam N-10) | 9.15 | 7.22 | 0 | 95 | 89 | 75 | – | – | – | – | – | – | – |
| CC(=O)NCCCC[C@@H]1NC(=O)[C@H](Cc2c[nH]c3c(C)cccc23)NC(=O)[C@H]([C@@H](C)O)NC(=O)[C@H](CC(N)=O)NC(=O)[C@@H]2CSSC[C@H](NC1=O)C(=O)N[C@@H](Cc1ccc(OCCN(C)C)cc1)C(=O)N[C@@H](Cc1ccc3ccccc3c1)C(=O)N[C@@](C)(CCCCN(C)C)C(=O)N[C@H](C(=O)N[C@@H](CC(N)=O)C(=O)N[C@@H](Cc1cccnc1)C(=O)N(C)CC(N)=O)CCCCNC(=O)CCC(=O)N2 [compound 151] (CNT[Trp(7-Me)]K(Ac)CY(Me2NCH2CH2)[2Nal][αMeLys(Me2)]KN[3Pal][Sar]-NH2; disulfide 1-6; linker N-10 via Suc) | 9.21 | 10.22 | 101 | 97 | 97 | 96 | – | – | – | – | – | – | – |
| CC(=O)N[C@H]1CCCCNC(=O)[C@@H]2CSSC[C@H](NC(=O)[C@H](CC(C)C)NC(=O)[C@H](Cc3c[nH]c4c(C)cccc34)NC1=O)C(=O)N[C@@H](Cc1ccc(OCCN(C)C)cc1)C(=O)N[C@@H](Cc1ccc3ccccc3c1)C(=O)N[C@@](C)(CC(C)C)C(=O)N[C@H](C(=O)N[C@@H](CC(N)=O)C(=O)N[C@@H](Cc1cccnc1)C(=O)N(C)CC(N)=O)CCCCN(C)C(=O)CCC(=O)N2C [compound 69] (Ac-K[Trp(7-Me)]LCY(Me2NCH2CH2)[2Nal][αMeL][Lys(Me)]N[3Pal][Sar]-NH2; linker 1-4-8 via X5) | 8.66 | 8.51 | 79 | 97 | 89 | 83 | – | – | – | – | – | – | – |
| Cc1cccc2c(C[C@@H]3NC(=O)[C@H]([C@@H](C)O)NC(=O)[C@H](CC(N)=O)NC(=O)[C@@H]4CSSC[C@H](NC(=O)[C@H](CCC(N)=O)NC3=O)C(=O)N[C@@H](Cc3ccc(OCCN(C)C)cc3)C(=O)N[C@@H](Cc3ccc5ccccc5c3)C(=O)NC(C)(C)C(=O)N[C@H](C(=O)N[C@@H](CC(N)=O)C(=O)N[C@@H](Cc3cccnc3)C(=O)N[C@@H](CCCCNC(=O)COCCOCCNC(=O)COCCOCCNC(=O)CC[C@H](NC(=O)CCCCCCCCCCCCCCCCC(=O)O)C(=O)O)C(N)=O)CCCCNC(=O)CCC(=O)N4)c[nH]c12 [compound 71] (CNT[Trp(7-Me)]QCY(Me2NCH2CH2)[2Nal][Aib]KN[3Pal]K([AEEA-AEEA-γGlu-C18 diacid])-NH2; disulfide 1-6; linker N-10 via Suc) | 9.51 | 8.63 | 76 | – | – | – | – | – | – | – | – | – | – |
| COc1ccc(C[C@@H]2NC(=O)[C@@H]3CSSC[C@H](NC(=O)[C@@H](NC(C)=O)CCCCNC(=O)C[C@@H](C(=O)N[C@@H](CC(N)=O)C(=O)N[C@@H](CC(N)=O)C(N)=O)NC(=O)C(C)(C)NC(=O)[C@H](Cc4ccc5ccccc5c4)NC2=O)C(=O)N[C@@H](CC(N)=O)C(=O)N[C@@H]([C@@H](C)O)C(=O)N[C@@H](Cc2c[nH]c4ccccc24)C(=O)N[C@@H](CCC(N)=O)C(=O)N3)cc1 [compound 7] (Ac-KCNTWQCY(Me)[2Nal][Aib]DNN-NH2; lactam 1-11; disulfide 2-7) | – | 7.60 | 0 | 84 | 68 | 47 | 200 (≈ 117 µM) | 160 (≈ 93.8 µM) | 160 (≈ 93.8 µM) | 150 (≈ 87.9 µM) | 28.9 | 1.3 | 6.0 |
